Reference: US8236354B1, “Use of immunomodulators for the treatment of cancer” (ZOR Pharmaceuticals, LLC, priority 2012, dated 2012)

Assays:
[1] = test system: advanced pancreatic cancer; details: cited from earlier work; for median Overall Survival: survival from study enrollment to death from any cause
[2] = test system: advanced (unresectable or metastatic) pancreatic adenocarcinoma; experiment: Phase 3 double-blind, randomized, placebo-controlled 3-stage trial: survival and time to symptom progression; type: in vivo, human
Procedure: This was a double-blind, multicenter, randomized, 2-arm, parallel group, 3-stage trial. Median survival was the primary end-point calculated from Kaplan-Meier plots of survival of the Intention to Treat data set.
The blood pharmacokinetic profiles of gemcitabine and VIRULIZIN® were assessed by an independent (unblinded) pharmacokinetics assessor. Stage 1 was performed at selected sites. Immune stimulation assays were also to be performed in these patients.
The decision to discontinue patients from Stage 2 and move them into Stage 3 and to continue or discontinue study treatment was at the discretion of the investigator.
However, if the investigator believed further chemotherapy was not in the best interest of the patient (based on hematological profile, symptom progression or no evidence of clinical benefit), the patient continued to receive best supportive care, with or without continued injections of VIRULIZIN® or placebo. The first 18 patients entering Stage 3 and receiving VIRULIZIN® or placebo plus intravenous infusions of 5-FU were to have blood samples taken to assess the pre- and post-dose plasma concentrations of 5-FU.
Male or female patients, aged 18 years or older, with advanced (unresectable or metastatic) pancreatic adenocarcinoma (tumor staging definition—tumor, lymph nodes, metastasis [TNM] stages II, III or IV) who had not received previous systemic chemotherapy, who had Eastern Cooperative Oncology Group (ECOG) Score 0, 1 or 2, and life expectancy greater than or equal to 12 weeks were included in the study.
(§1) VIRULIZIN® or placebo was administered as intramuscular injections of 3 mL with dosing 3 times weekly (Monday, Wednesday, Friday) in Stages 1, 2 and 3.
(§2) Following pain stabilization screening, all randomized patients in Stages 1 and 2 received 30-minute intravenous infusions of gemcitabine at a dose of 1 g/m2 weekly for the first 7 weeks, followed by a week of rest. Subsequent cycles consisted of 28-day cycles with gemcitabine dosing on days 1, 8 and 15. Guidelines for dose reduction in case of toxicity were provided from the Official Product Prescribing Guidelines. Dosing continued until intolerance to gemcitabine developed, or there was symptom progression, or no evidence of clinical benefit. […] The patient's physician made the decision concerning 5-FU chemotherapy or best supportive care.
Efficacy was evaluated based upon survival time, defined as the time from Baseline/Treatment Day 1 to the time of death from any cause. Time to progression of symptoms, consisting of: time to increase in pain (with consideration of analgesic consumption), time to deterioration in ECOG score, and time to weight loss.

[3] = in vivo
Procedure: as §1, §2
Safety was evaluated based upon adverse events (AEs), laboratory tests, and vital signs.

[4] = Efficacy evaluable, ECOG 0 or 1, value (95% CI)
[5] = Efficacy evaluable, Overall, value (95% CI)
[6] = Intention to Treat, ECOG 0 or 1, value (95% CI)
[7] = Intention to Treat, Metastatic, value (95% CI)
[8] = Intention to Treat, Overall, value (95% CI)
[9] = ECOG 0 or 1, treated in Stage 3, of 25 (VIRULIZIN plus 5-FU) / of 16 (placebo plus 5-FU) patients

Nc1ccn([C@@H]2O[C@H](CO)[C@@H](O)C2(F)F)c(=O)n1 [gemcitabine]
increased median survival versus 5-FU ([1]; in vivo): 1.5 months
median Overall Survival [1]: 5.7 months

Nc1ccn([C@@H]2O[C@H](CO)[C@@H](O)C2(F)F)c(=O)n1 [Placebo plus gemcitabine, gemcitabine]
Median survival time, study enrollment to death from any cause [2, 4]: 6.3 (5.0 to 7.2) months
Percent 12-Month Survival [2, 4]: 20.1 (12.8 to 27.4) %
Median survival time, study enrollment to death from any cause ([2]; Efficacy evaluable, ECOG 2, value (95% CI)): 5.5 (4.3 to 7.4) months
Median survival time, study enrollment to death from any cause ([2]; Efficacy evaluable, Locally advanced disease, value (95% CI)): 8.1 (7.1 to 11.2) months
Median survival time, study enrollment to death from any cause ([2]; Efficacy evaluable, Metastatic disease, value (95% CI)): 5.0 (4.3 to 6.0) months
Percent 12-Month Survival ([2]; Efficacy evaluable, Metastatic, value (95% CI)): 10.9 (5.4 to 16.4) %
Median survival time, study enrollment to death from any cause [2, 5]: 6.0 (5.1 to 7.0) months
Percent 12-Month Survival [2, 5]: 16.9 (11.2 to 22.6) %
Median survival time, study enrollment to death from any cause ([2]; Efficacy evaluable, Patients participating in study Stage 3, value (95% CI)): 7.4 (6.8 to 8.6) months
median duration of participation in study Stages 1 and/or 2 ([2]; FIG. 5, 248 Intention to Treat patients who participated in study Stage 3): 6.31 months
median duration of participation in study Stages 1 and/or 2 ([2]; FIG. 6, Stage 3 participants, High ECOG score of 2): 6.31 months
median duration of participation in study Stages 1 and/or 2 ([2]; FIG. 6, Stage 3 participants, Low ECOG score of 0 or 1): 7.13 months
Median survival time from study enrollment to death from any cause [2, 6]: 6.4 (5.0 to 7.3) months
Percent 12-Month Survival [2, 6]: 21.1 (14.3 to 28.0) %
Median survival time from study enrollment to death from any cause ([2]; Intention to Treat, ECOG 0 or 1, value (95% CI), listed as placebo and gemcitabine): 6.4 months
Median survival time from study enrollment to death from any cause ([2]; Intention to Treat, ECOG 0 or 1, value (95% CI), listed as placebo plus gemcitabine): 6.4 months
Median survival time from study enrollment to death from any cause ([2]; Intention to Treat, ECOG 2, value (95% CI)): 5.1 (4.1 to 6.8) months
Median survival time from study enrollment to death from any cause ([2]; Intention to Treat, ECOG 2, value (95% CI), listed as placebo and gemcitabine): 5.1 months
Median survival time from study enrollment to death from any cause ([2]; Intention to Treat, ECOG 2, value (95% CI), listed as placebo plus gemcitabine): 6.4 months
time to progression of pain from time of randomization ([2]; Intention to Treat, ECOG score of 0 or 1): 9.0 mo
Median survival time from study enrollment to death from any cause ([2]; Intention to Treat, Locally advanced, value (95% CI)): 8.4 (7.1 to 11.2) months
Median survival time from study enrollment to death from any cause [2, 7]: 5.0 (4.3 to 6.0) months
Percent 12-Month Survival [2, 7]: 13.3 (8.0 to 18.6) %
Median survival time from study enrollment to death from any cause [2, 8]: 6.0 (5.1 to 7.0) months
Percent 12-Month Survival [2, 8]: 17.7 (12.3 to 23.0) %
Median survival time from study enrollment to death from any cause ([2]; Intention to Treat, Overall, value (95% CI), listed as placebo plus gemcitabine): 6.0 months
Median survival time from study enrollment to death from any cause ([2]; Intention to Treat, Patients participating in study Stage 3, value (95% CI)): 7.5 (6.8 to 9.4) months
Median survival time from study enrollment to death from any cause ([2]; Intention to Treat, Patients participating in study Stage 3, value (95% CI), listed as placebo plus gemcitabine): 7.5 months
Median survival time from entry into study Stage 3 to death from any cause ([2]; Intention to Treat, Stage 3 test product with or without 5-FU, ECOG 0 or 1): 3.19 months
Median survival time from entry into study Stage 3 to death from any cause ([2]; Intention to Treat, Stage 3 test product with or without 5-FU, ECOG 2): 2.79 months
Median survival time from entry into study Stage 3 to death from any cause ([2]; Intention to Treat, Stage 3 test product with or without 5-FU, Overall): 2.96 months
Median survival time from study enrollment to death from any cause ([2]; Intention to Treat, patients participating in study Stage 3, ECOG 0 or 1): 7.13 months
Median survival time from study enrollment to death from any cause ([2]; Intention to Treat, patients participating in study Stage 3, ECOG 2): 6.31 months
Abdominal pain (not otherwise specified): (%) of Patients [3]: (26.2) %
Abdominal pain (not otherwise specified): Number of Events [3]: 96
Abdominal pain (not otherwise specified): Number of Patients [3]: 56
Abdominal pain upper: (%) of Patients [3]: (11.7) %
Abdominal pain upper: Number of Events [3]: 35
Abdominal pain upper: Number of Patients [3]: 25
Alanine aminotransferase increased: (%) of Patients [3]: (7.0) %
Alanine aminotransferase increased: Number of Events [3]: 21
Alanine aminotransferase increased: Number of Patients [3]: 15
Anemia (not otherwise specified): (%) of Patients [3]: (43.9) %
Anemia (not otherwise specified): Number of Events [3]: 206
Anemia (not otherwise specified): Number of Patients [3]: 94
Anorexia: (%) of Patients [3]: (23.8) %
Anorexia: Number of Events [3]: 71
Anorexia: Number of Patients [3]: 51
Ascites: (%) of Patients [3]: (17.8) %
Ascites: Number of Events [3]: 51
Ascites: Number of Patients [3]: 38
Aspartate aminotransferase increased: (%) of Patients [3]: (8.9) %
Aspartate aminotransferase increased: Number of Events [3]: 27
Aspartate aminotransferase increased: Number of Patients [3]: 19
Back pain: (%) of Patients [3]: (9.8) %
Back pain: Number of Events [3]: 30
Back pain: Number of Patients [3]: 21
Blood alkaline phosphatase increased (not otherwise specified): (%) of Patients [3]: (9.8) %
Blood alkaline phosphatase increased (not otherwise specified): Number of Events [3]: 28
Blood alkaline phosphatase increased (not otherwise specified): Number of Patients [3]: 21
Constipation: (%) of Patients [3]: (18.7) %
Constipation: Number of Events [3]: 57
Constipation: Number of Patients [3]: 40
Dehydration: (%) of Patients [3]: (8.9) %
Dehydration: Number of Events [3]: 26
Dehydration: Number of Patients [3]: 19
Diarrhea (not otherwise specified): (%) of Patients [3]: (21.5) %
Diarrhea (not otherwise specified): Number of Events [3]: 79
Diarrhea (not otherwise specified): Number of Patients [3]: 46
Disease progression (not otherwise specified): (%) of Patients [3]: (11.7) %
Disease progression (not otherwise specified): Number of Events [3]: 25
Disease progression (not otherwise specified): Number of Patients [3]: 25
Dyspnea (not otherwise specified): (%) of Patients [3]: (15.4) %
Dyspnea (not otherwise specified): Number of Events [3]: 46
Dyspnea (not otherwise specified): Number of Patients [3]: 33
Edema peripheral: (%) of Patients [3]: (24.3) %
Edema peripheral: Number of Events [3]: 76
Edema peripheral: Number of Patients [3]: 52
Fatigue: (%) of Patients [3]: (36.0) %
Fatigue: Number of Events [3]: 178
Fatigue: Number of Patients [3]: 77
Headache (not otherwise specified): (%) of Patients [3]: (6.5) %
Headache (not otherwise specified): Number of Events [3]: 42
Headache (not otherwise specified): Number of Patients [3]: 14
Jaundice (not otherwise specified): (%) of Patients [3]: (11.7) %
Jaundice (not otherwise specified): Number of Events [3]: 30
Jaundice (not otherwise specified): Number of Patients [3]: 25
Leukopenia (not otherwise specified): (%) of Patients [3]: (13.6) %
Leukopenia (not otherwise specified): Number of Events [3]: 67
Leukopenia (not otherwise specified): Number of Patients [3]: 29
Nausea: (%) of Patients [3]: (42.1) %
Nausea: Number of Events [3]: 269
Nausea: Number of Patients [3]: 90
Neutropenia: (%) of Patients [3]: (32.2) %
Neutropenia: Number of Events [3]: 212
Neutropenia: Number of Patients [3]: 69
Pyrexia: (%) of Patients [3]: (30.4) %
Pyrexia: Number of Events [3]: 184
Pyrexia: Number of Patients [3]: 65
Rash (not otherwise specified): (%) of Patients [3]: (9.3) %
Rash (not otherwise specified): Number of Events [3]: 26
Rash (not otherwise specified): Number of Patients [3]: 20
Rigors: (%) of Patients [3]: (15.4) %
Rigors: Number of Events [3]: 97
Rigors: Number of Patients [3]: 33
Thrombocytopenia: (%) of Patients [3]: (29.9) %
Thrombocytopenia: Number of Events [3]: 196
Thrombocytopenia: Number of Patients [3]: 64
Vomiting (not otherwise specified): (%) of Patients [3]: (29.4) %
Vomiting (not otherwise specified): Number of Events [3]: 141
Vomiting (not otherwise specified): Number of Patients [3]: 63
Weakness: (%) of Patients [3]: (23.8) %
Weakness: Number of Events [3]: 82
Weakness: Number of Patients [3]: 51
Weight decreased: (%) of Patients [3]: (12.1) %
Weight decreased: Number of Events [3]: 38
Weight decreased: Number of Patients [3]: 26

O=c1[nH]cc(F)c(=O)[nH]1 [Placebo plus 5-FU, 5-fluorouracil]
number of patients alive (censored) at the end of the study data collection period [2, 9]: None
percent of patients alive (censored) at the end of the study data collection period [2, 9]: 0%
Median survival time from entry into study Stage 3 to death from any cause ([2]; Intention to Treat, Stage 3 test product plus 5-FU, ECOG 0 or 1): 2.94 months
Median survival time from entry into study Stage 3 to death from any cause ([2]; Intention to Treat, Stage 3 test product plus 5-FU, ECOG 2): 3.42 months
Median survival time from entry into study Stage 3 to death from any cause ([2]; Intention to Treat, Stage 3 test product plus 5-FU, ECOG 2, listed as placebo plus 5-FU): 3.43 months
Median survival time from entry into study Stage 3 to death from any cause ([2]; Intention to Treat, Stage 3 test product plus 5-FU, Overall): 3.22 months

O=c1[nH]cc(F)c(=O)[nH]1 [5-FU, 5-fluorouracil]
median Overall Survival [1]: 4.2 months
